Like-named read-outs stand apart in the source and are kept apart here.
Columns and labels:
Type in all cases: cell-based
Leishmania promastigotes = Leishmania promastigotes Assay; details: promastigotes, 3H-thymidine uptake, read-out: Leishmania IC50 ± SD
Summary of the method: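 L. major (WHO Iran vaccine strain) and L. donovani MHOM/KE/85/NLB 274 promastigotes (3×10^6/ml, day 3 and 6 cultures) exposed to compound 2 h at 26 °C, then 3H-thymidine 18 h; incorporation counted by scintillation. Microscopic counts and flagellar motility also assessed.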

TNF-α = TNF-α production by human peripheral blood mononuclear cells, culture supernatant (ELISA)
Description: Cells: Peripheral blood mononuclear cells obtained from healthy individuals. The cells were separated by a conventional method lymphoprep) and suspended in RMPI 1640 containing 5% human serum.
Stimulation of cytokine-release from human mononuclear cells: Human peripheral blood mononuclear cells from Danish donors were suspended in 1-10% (v/v) human serum in RPMI 1640 and adjusted to 2×10^6 cells per ml. 0.1 ml volumes were then dispensed into wells of 96-well microtiter plates. […] In some experiments cells were preincubated with drugs for 2 hrs before addition of stimulation antigens. The cultures were incubated overnight for TNF-α and IL-6 assays.
Supernatants were collected and assayed for TNF-α, IL-1α and IL-6 by ELISA procedures (Jakobsen et al., 1993, Fomsgaard et al., 1988, Hansen et al., 1991) with the following modifications. ELISA Maxisorp plates (Nunc, Roskilde, Denmark) were coated for 24 hrs at 4 C with 100 μl per well of 2.5 μg/ml rabbit polyclonal IgG to human recombinant TNF, IL-1α or IL-6 in 100 mM sodiumhydrogencarbonate. Non-attached sites were blocked for 1 h by 200 μl per well of 2% human serum slbumin in PBS (1 h at 37° C.), and the wells were washed 4 times in 2.5% NaCl, 0.1% Tween 20 (Merck, Darmstadt, Germany). This washing procedure was done after each of the following incubating steps:
1) 100 μl culture supernatants made to 50% (v/v) in incubation buffer (4% (v/v) normal rabbit serum, DAKO code X902), 1% polyethylene glycol (MW 6,000), 2.5% NaCl, 0.1% Tween 20 in phosphate buffered saline (PBS) were incubated 2 hrs at 37° C., dilutions of native as well as recombinant cytokine standards in the same incubation buffer were asssayed in parallel with the tested supernatants,
2) 100 μl per well of biotinilated rabbit antibodies to recombinant TNF-α, IL-1α or IL-6 (1.5 μg/ml in 0.5% human serum albumin, 0.1% Tween 20 in PBS) were added at 37° for 2 hrs,
3) […] per well of a 1:1000 dilution of streptavidin-peroxidase (Amersham, UK), at room temperature for 30 min.
Enzyme activities were quantitated after addition of 100 μl per well of 0.67 mg/ml 1,2-phenyldiamine hydrochloride (DAKO) dissolved in 100 mM citric acid-phosphate buffer, pH 5.0 containing 0.015% (v/v) H2O2. The reactions were stopped by adding 50 μl per well of 2.5 M H2SO4, and the optical densities are measured in an ELISA scanner at 490 nm against a test reference at 620 nm.
Assay: The compounds were prepared as stock solution at a concentration of 1 mg/ml in medium containing 10% DMSO. The dilutions were made in medium. The cells were stimulated with either SPAG (a malaria antigen TNF-inducer) or bacterial LPS. The supernatant of cell cultures were assayed for TNF-α using a commercial ELISA kit.

human lymphocytes = assay: Lymphocyte Proliferation Assay; details: PHA provoked proliferation of human lymphocytes, read-out: Lymphocytes IC50 ± SD
Summary of the method: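 Ficoll-isolated human blood mononuclear cells (0.63×10^5/ml) in RPMI 1640 with 5% FCS were cultured in triplicate with test compound and PHA or PPD for 3 or 7 days. Proliferation measured by ^3H-thymidine incorporation over the final 24 h; triplicate median recorded.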

[1] = Experiment 1, LPS, 12.5 μg/ml, Control 1.17
[2] = Experiment 1, LPS, 25 μg/ml, Control 1.17
[3] = Experiment 1, LPS, 50 μg/ml, Control 1.17
[4] = Experiment 1, LPS, 100 μg/ml, Control 1.17
[5] = Experiment 1, SPAG, 12.5 μg/ml, Control 3.73
[6] = Experiment 1, SPAG, 25 μg/ml, Control 3.73
[7] = Experiment 1, SPAG, 50 μg/ml, Control 3.73
[8] = Experiment 1, SPAG, 100 μg/ml, Control 3.73
[9] = Experiment 2, LPS, 1.562 μg/ml, Control 2.06
[10] = Experiment 2, LPS, 3.125 μg/ml, Control 2.06
[11] = Experiment 2, LPS, 6.25 μg/ml, Control 2.06
[12] = Experiment 2, LPS, 12.5 μg/ml, Control 2.06
[13] = Experiment 2, SPAG, 1.562 μg/ml, Control 2.28
[14] = Experiment 2, SPAG, 3.125 μg/ml, Control 2.28
[15] = Experiment 2, SPAG, 6.25 μg/ml, Control 2.28
[16] = Experiment 2, SPAG, 12.5 μg/ml, Control 2.28

SMILES: C=CC(C)(C)c1cc(/C=C/C(=O)c2ccc(O)cc2)c(OC)cc1O [Licochalcone A]
- IC50 (Leishmania promastigotes): 13 ± 1 µM
- percentage inhibition of TNF-α production (TNF-α; Table 1, LPS 1:1000, drug 1 μg/ml): 0%
- percentage inhibition of TNF-α production (TNF-α; Table 1, LPS 1:1000, drug 5 μg/ml): 0%
- percentage inhibition of TNF-α production (TNF-α; Table 1, LPS 1:1000, drug 10 μg/ml): 40%
- percentage inhibition of TNF-α production (TNF-α; Table 1, LPS 1:1000, drug 20 μg/ml, preincubated 2 hrs): 81%
- percentage inhibition of TNF-α production (TNF-α; Table 1, SPAG 1:12.5, drug 1 μg/ml): 0%
- percentage inhibition of TNF-α production (TNF-α; Table 1, SPAG 1:12.5, drug 5 μg/ml): 13%
- percentage inhibition of TNF-α production (TNF-α; Table 1, SPAG 1:12.5, drug 10 μg/ml): 44%
- percentage inhibition of TNF-α production (TNF-α; Table 1, SPAG 1:12.5, drug 20 μg/ml, preincubated 2 hrs): 97%
- percentage inhibition of TNF-α production (TNF-α; Table 2, LPS 1:1000, drug 1.25 μg/ml): 4%
- percentage inhibition of TNF-α production (TNF-α; Table 2, LPS 1:1000, drug 6.25 μg/ml): 3%
- percentage inhibition of TNF-α production (TNF-α; Table 2, LPS 1:1000, drug 12.5 μg/ml): 38%
- percentage inhibition of TNF-α production (TNF-α; Table 2, LPS 1:1000, drug 20 μg/ml, preincubated 2 hours): 54%
- percentage inhibition of TNF-α production (TNF-α; Table 2, SPAG 1:12.5, drug 1.25 μg/ml): 54%
- percentage inhibition of TNF-α production (TNF-α; Table 2, SPAG 1:12.5, drug 6.25 μg/ml): 82%
- percentage inhibition of TNF-α production (TNF-α; Table 2, SPAG 1:12.5, drug 12.5 μg/ml): 94%
- percentage inhibition of TNF-α production (TNF-α; Table 2, SPAG 1:12.5, drug 20 μg/ml, preincubated 2 hours): 100%
- IC50 (human lymphocytes): 48 ± 5 µM

SMILES: COc1cc(/C=C/C(=O)c2ccc(C3CCCCC3)cc2)cc(OC)c1 [PH104, 3,5-dimethoxy-4′-cyclohexylchalcone]
- IC50 (Leishmania promastigotes; Leishmania): 31 ± 2 µM
- TNF-α production (OD values) (TNF-α; [1]): 1.15 OD
- TNF-α production (OD values) (TNF-α; [2]): 0.59 OD
- TNF-α production (OD values) (TNF-α; [3]): 0.41 OD
- TNF-α production (OD values) (TNF-α; [4]): 0.31 OD
- TNF-α production (OD values) (TNF-α; [5]): 0.93 OD
- TNF-α production (OD values) (TNF-α; [6]): 0.13 OD
- TNF-α production (OD values) (TNF-α; [7]): 0.03 OD
- TNF-α production (OD values) (TNF-α; [8]): 0.01 OD
- TNF-α production (OD values) (TNF-α; [9]): 1.54 OD
- TNF-α production (OD values) (TNF-α; [10]): 1.41 OD
- TNF-α production (OD values) (TNF-α; [11]): 1.08 OD
- TNF-α production (OD values) (TNF-α; [12]): 0.91 OD
- TNF-α production (OD values) (TNF-α; [13]): 2.47 OD
- TNF-α production (OD values) (TNF-α; [14]): 2.44 OD
- TNF-α production (OD values) (TNF-α; [15]): 1.50 OD
- TNF-α production (OD values) (TNF-α; [16]): 0.43 OD
- inhibition at 12.5 µg/mL (TNF-α; Homo sapiens, PBMC, concentration of 12.5 μg/ml, read-out: inhibition of the production of TNF-α): ~75%
- inhibition of the production of TNF-α (TNF-α; at higher concentrations than 12.5 μg/ml): greater than 75%
- IC50 (human lymphocytes; Lymphocyte): 39 ± 2 µM

SMILES: COc1cc(/C=C/C(=O)c2ccc([N+](=O)[O-])cc2)cc(OC)c1 [PH105, 4′-nitro-3,5-dimethoxychalcone]
- IC50 (Leishmania promastigotes; Leishmania): 16 ± 1 µM
- inhibitory effect on TNF-α production (TNF-α): no or very little inhibitory effect
- TNF-α production (OD values) (TNF-α; [1]): 1.07 OD
- TNF-α production (OD values) (TNF-α; [2]): 1.13 OD
- TNF-α production (OD values) (TNF-α; [3]): 1.69 OD
- TNF-α production (OD values) (TNF-α; [4]): 0.99 OD
- TNF-α production (OD values) (TNF-α; [5]): 1.94 OD
- TNF-α production (OD values) (TNF-α; [6]): 2.00 OD
- TNF-α production (OD values) (TNF-α; [7]): 4.00 OD
- TNF-α production (OD values) (TNF-α; [8]): 2.3 OD
- IC50 (human lymphocytes; Lymphocyte): 20 ± 1 µM

SMILES: COc1cc(/C=C/C(=O)c2ccccc2F)cc(OC)c1 [PH135, 2′-fluoro-3,5-dimethoxychalcone]
- IC50 (Leishmania promastigotes; Leishmania): 3.5 ± 0.8 µM
- TNF-α production (OD values) (TNF-α; [1]): 0.01 OD
- TNF-α production (OD values) (TNF-α; [2]): 0.01 OD
- TNF-α production (OD values) (TNF-α; [3]): 0.01 OD
- TNF-α production (OD values) (TNF-α; [4]): 0.02 OD
- TNF-α production (OD values) (TNF-α; [5]): 0.02 OD
- TNF-α production (OD values) (TNF-α; [6]): 0.01 OD
- TNF-α production (OD values) (TNF-α; [7]): 0.01 OD
- TNF-α production (OD values) (TNF-α; [8]): 0.01 OD
- TNF-α production (OD values) (TNF-α; [9]): 0.89 OD
- TNF-α production (OD values) (TNF-α; [10]): 0.49 OD
- TNF-α production (OD values) (TNF-α; [11]): 0.09 OD
- TNF-α production (OD values) (TNF-α; [12]): 0.04 OD
- TNF-α production (OD values) (TNF-α; [13]): 0.93 OD
- TNF-α production (OD values) (TNF-α; [14]): 0.04 OD
- TNF-α production (OD values) (TNF-α; [15]): 0.03 OD
- TNF-α production (OD values) (TNF-α; [16]): 0.01 OD
- IC50 (human lymphocytes; Lymphocyte): 6 ± 0.4 µM

SMILES: COc1cc(/C=C/C(=O)c2cccc(F)c2)cc(OC)c1 [PH136, 3′-fluoro-3,5-dimethoxychalcone]
- IC50 (Leishmania promastigotes; Leishmania): 5.5 ± 0.3 µM
- TNF-α production (OD values) (TNF-α; [1]): 0.00 OD
- TNF-α production (OD values) (TNF-α; [2]): 0.00 OD
- TNF-α production (OD values) (TNF-α; [3]): 0.00 OD
- TNF-α production (OD values) (TNF-α; [4]): 0.01 OD
- TNF-α production (OD values) (TNF-α; [5]): 0.01 OD
- TNF-α production (OD values) (TNF-α; [6]): 0.00 OD
- TNF-α production (OD values) (TNF-α; [7]): 0.01 OD
- TNF-α production (OD values) (TNF-α; [8]): 0.00 OD
- TNF-α production (OD values) (TNF-α; [9]): 1.70 OD
- TNF-α production (OD values) (TNF-α; [10]): 1.81 OD
- TNF-α production (OD values) (TNF-α; [11]): 2.18 OD
- TNF-α production (OD values) (TNF-α; [12]): 0.08 OD
- TNF-α production (OD values) (TNF-α; [13]): 3.29 OD
- TNF-α production (OD values) (TNF-α; [14]): 4.00 OD
- TNF-α production (OD values) (TNF-α; [15]): 1.39 OD
- TNF-α production (OD values) (TNF-α; [16]): 0.02 OD
- IC50 (human lymphocytes; Lymphocyte): 9.2 ± 0.5 µM

Source: US20030065039A1, “Biologically active 1,3-bis-aromatic-prop-2-en-1-ones, 1,3-bis-aromatic-propan-1-ones, and 1,3-bis-aromatic-prop-2-yn-1-ones” (Statens Serum Institute, priority 1997, published 2003)
